Reference: patent US20110160180A1, “Cannabinoid Receptor Ligands” (ASTRAZENECA AB, priority 2008, published 2011)
Where “and” joins values, the source holds several entries; their conditions need not be identical. Equal values may be shown once.

Target: Human CB1 receptor (hCB1) (Homo sapiens, UniProt P21554)
Assay: hCB1 GTPγS binding
Assay type: biochemical
Conditions: hCB1 membranes, GTPg35S binding; maximal stimulated binding determined with 10 μM Win 55,212-2
Protocol: hCB1 and hCB2GTPγS Binding
Human CB1 receptor from Receptor Biology (hCB1) or human CB2 receptor membranes (BioSignal) are thawed at 37° C., passed 3 times through a 25-gauge blunt-end needle and diluted in the GTPγS binding buffer (50 mM Hepes, 20 mM NaOH, 100 mM NaCl, 1 mM EDTA, 5 mM MgCl2, pH 7.4, 0.1% BSA). […] The basal and maximal stimulated binding is determined in absence and presence of 1 μM (hCB2) or 10 μM (hCB1) Win 55,212-2 respectively. The membranes are pre-incubated for 5 minutes with 56.25 μM (hCB2) or 112.5 μM (hCB1) GDP prior to distribution in plates (15 μM (hCB2) or 30 μM (hCB1) GDP final). The plates are vortexed and incubated for 60 minutes at room temperature, filtered on Unifilters GF/B (presoaked in water) with the Tomtec or Packard harvester using 3 ml of wash buffer (50 mM Tris, 5 mM MgCl2, 50 mM NaCl, pH 7.0). The filters are dried for 1 hour at 55° C. The radioactivity (cpm) is counted in a TopCount (Packard) after adding 65 μl/well of MS-20 scintillation liquid. Antagonist reversal studies are done in the same way except that (a) an agonist dose-response curve is done in the presence of a constant concentration of antagonist, or (b) an antagonist dose-response curve is done in the presence of a constant concentration of agonist.

Human CB1 receptor (hCB1), sequence (P21554 whole entry): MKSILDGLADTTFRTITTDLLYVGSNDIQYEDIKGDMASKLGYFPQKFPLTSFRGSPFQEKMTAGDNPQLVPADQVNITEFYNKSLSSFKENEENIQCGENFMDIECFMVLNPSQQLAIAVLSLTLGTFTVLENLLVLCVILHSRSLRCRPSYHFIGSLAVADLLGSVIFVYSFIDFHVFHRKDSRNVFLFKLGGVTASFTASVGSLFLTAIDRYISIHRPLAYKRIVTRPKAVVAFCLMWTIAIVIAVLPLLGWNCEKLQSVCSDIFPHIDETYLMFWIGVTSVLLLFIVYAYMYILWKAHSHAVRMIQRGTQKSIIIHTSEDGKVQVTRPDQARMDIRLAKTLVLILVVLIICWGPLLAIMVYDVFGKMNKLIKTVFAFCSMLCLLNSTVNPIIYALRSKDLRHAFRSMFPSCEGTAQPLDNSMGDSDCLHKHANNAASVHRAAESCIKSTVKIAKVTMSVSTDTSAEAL

SMILES	hCB1 EMax
Cn1c2c(c3cc(C(=O)N4CC[C@H](C(=O)NCCF)C4)ccc31)CC(C1CCOCC1)CC2 (stereo partly drawn) [(3S)-N-(2-fluoroethyl)-1-[9-methyl-6-(oxan-4-yl)5,6,7,8-tetrahydrocarbazole-3-carbonyl]pyrrolidine-3-carboxamide]	113%
Cn1c2c(c3cc(C(=O)N4CC[C@H](C(=O)NC5CC5)C4)ccc31)CC(C1CCOCC1)CC2 (stereo partly drawn) [(3S)-N-cyclopropyl-1-[9-methyl-6-(oxan-4-yl)5,6,7,8-tetrahydrocarbazole-3-carbonyl]pyrrolidine-3-carboxamide]	127%
CNC(=O)CCCN(C)C(=O)c1ccc2c(c1)c1c(n2C)CCC(C2CCOCC2)C1 (centres unmarked) [N,9-dimethyl-N-[3-(methylcarbamoyl)propyl]-6-(oxan-4-yl)-5,6,7,8-tetrahydrocarbazole-3-carboxamide]	121%
CN(CC(=O)NC1CC1)C(=O)c1ccc2c(c1)c1c(n2C)CCC(C2CCOCC2)C1 (centres unmarked) [N-(cyclopropylcarbamoylmethyl)-N,9-dimethyl-6-(oxan-4-yl)-5,6,7,8-tetrahydrocarbazole-3-carboxamide]	107%
CCN(CC(=O)NC1CC1)C(=O)c1ccc2c(c1)c1c(n2C)CCC(C2CCOCC2)C1 (centres unmarked) [N-(cyclopropylcarbamoylmethyl)-N-ethyl-9-methyl-6-(oxan-4-yl)-5,6,7,8-tetrahydrocarbazole-3-carboxamide]	118% and 106%
CN(CCCC(=O)NCCF)C(=O)c1ccc2c(c1)c1c(n2C)CCC(C2CCOCC2)C1 (centres unmarked) [N-[3-(2-fluoroethylcarbamoyl)propyl]-N,9-dimethyl-6-(oxan-4-yl)-5,6,7,8-tetrahydrocarbazole-3-carboxamide]	131% and 112%
CCN(CC(=O)NCCO)C(=O)c1ccc2c(c1)c1c(n2S(=O)(=O)CC)CCC(C2CCOCC2)C1 (centres unmarked) [N-ethyl-9-ethylsulfonyl-N-(2-hydroxyethylcarbamoylmethyl)-6-(oxan-4-yl)-5,6,7,8-tetrahydrocarbazole-3-carboxamide]	115%
CCN(CC(=O)NCCF)C(=O)c1ccc2c(c1)c1c(n2C)CCC(C2CCOCC2)C1 (centres unmarked) [N-ethyl-N-(2-fluoroethylcarbamoylmethyl)-9-methyl-6-(oxan-4-yl)-5,6,7,8-tetrahydrocarbazole-3-carboxamide]	119% and 111%
